Measurements as given in US20250127828A1, “BACILLUS […] AND COMPOSITION FOR PREVENTING, TREATING, OR IMPROVING TU[…] SAME” (priority 2023, published 2025).

Tests used:
[1] = tested on: M. tuberculosis XDR strain; assay type: cell-based, Mycobacterium tuberculosis; conditions: infected Raw 264.7 cells, 3 days; effect only at this very high concentration
M. tuberculosis H37Rv = assay: In vitro macrophage infection model, H37Rv, CFU analysis; assay type: cell-based, Mycobacterium tuberculosis; conditions: infected Raw 264.7 cells, 3 days
[2] = tested on: M. tuberculosis XDR strain; assay type: in vivo, Mycobacterium tuberculosis; conditions: latent model, 30 mg/kg
[3] = tested on: M. tuberculosis XDR strain; assay type: in vivo, Mycobacterium tuberculosis
M. tuberculosis = assay: Lung granuloma formation and immune response analysis in both tuberculosis mouse models; assay type: in vivo, Mycobacterium tuberculosis

Compound | concentration with inhibitory effect against XDR strains [1] [µg/mL] | concentration showing significant effects against H37Rv (M. tuberculosis H37Rv) | effect on number of M. tuberculosis in the lungs [2] | lung species diversity (Shanon-based alpha diversity) ([3]; in vivo) | occupancy of M. tuberculosis in the lungs (16S rRNA gene-based lung metagenomics) compared to the infected control group ([3]; in vivo) | survival rate ([3]; in vivo) [%] | granuloma formation in the lungs compared to infected control mice (M. tuberculosis) | mortality / survival until the end of the experiment ([3]; Balb/c mice, high-dose XDR lung inhalation, probiotics by lung inhalation)
NNC(=O)c1ccncc1 [INH, isoniazid] | 100 | 1 μg/mL or 10 μg/mL | significantly reduced | worsened the severity | did not decrease | 16.6 | no significant reduction | –
CO[C@H]1/C=C/O[C@@]2(C)Oc3c(C)c(O)c4c(O)c(c(/C=N/N5CCN(C)CC5)c(O)c4c3C2=O)NC(=O)/C(C)=C\C=C\[C@H](C)[C@H](O)[C@@H](C)[C@@H](O)[C@@H](C)[C@H](OC(C)=O)[C@@H]1C [RIF, rifampicin] | 100 | – | – | – | – | 32.2 | – | –
Lactobacillus | – | – | – | – | – | – | – | died
